According to patent publication US20190031676A1, “ANTIBACTERIAL ANNULATED PYRROLIDIN-2-ONE DERIVATIVES” (priority 2015, published 2019):
Values after ≈ are worked out from the molar mass of the structure shown. Where two headings read alike, the source gives them in different places.

Assays:
Assay type in all cases: cell-based
E. coli ATCC25922 = test: Bacterial growth minimal inhibitory concentration (microdilution, cation-adjusted Mueller-Hinton Broth); details: Escherichia coli, ATCC25922; quinolone-sensitive strain
Description: (§1) Minimal Inhibitory Concentrations (MICs; mg/L) were determined in cation-adjusted Mueller-Hinton Broth by a microdilution method following the description given in “Methods for Dilution Antimicrobial Susceptibility Tests for Bacteria that grow Aerobically”, Approved standard, 7th ed., Clinical and Laboratory Standards Institute (CLSI) Document M7-A7, Wayne, Pa., USA (2006).
(§2) All Example compounds were tested against several Gram-positive and Gram-negative bacteria. […] K. pneumoniae A-651 is a multiply-resistant strain (in particular quinolone-resistant), while E. coli ATCC25922 and P. aeruginosa ATCC27853 are quinolone-sensitive strains.

P. aeruginosa ATCC27853 = test: as above; details: Pseudomonas aeruginosa, ATCC27853; quinolone-sensitive strain
Description: as §1, §2

K. pneumoniae A-651 = test: as above; details: Klebsiella pneumoniae, A651; multiply-resistant strain (in particular quinolone-resistant)
Description: as §1, §2

wild-type E. coli A-1261 = test: MIC against wild-type E. coli A-1261 with or without alkaline phosphatase or esterase (prodrug activation); details: Escherichia coli
Description: Minimal Inhibitory Concentrations (MICs; mg/L) were determined in cation-adjusted Mueller-Hinton Broth by a microdilution method following the description given in “Methods for Dilution Antimicrobial Susceptibility Tests for Bacteria that grow Aerobically”, Approved standard, 7th ed., Clinical and Laboratory Standards Institute (CLSI) Document M7-A7, Wayne, Pa., USA (2006). The compounds of Examples 4 and 16 were tested against wild-type E. coli A-1261 in the absence of alkaline phosphatase or esterase, in the presence of an alkaline phosphatase, and in the presence of an esterase. The corresponding antibacterial test results are given in Table 2 hereafter (MICs in mg/L).

Structure (SMILES): C[C@@](CCN1Cc2cc(C#CC#C[C@H]3C[C@]3(F)CO)sc2C1=O)(C(=O)NO)S(C)(=O)=O [Example 4, (2R)-4-(2-(((1R,2R)-2-fluoro-2-(hydroxymethyl)cyclopropyl)buta-1,3-diyn-1-yl)-6-oxo-4,6-dihydro-5H-thieno[2,3-c]pyrrol-5-yl)-N-hydroxy-2-methyl-2-(methylsulfonyl)butanamide]
- MIC (E. coli ATCC25922): 0.25 µg/mL (≈ 0.534 µM)
- MIC (P. aeruginosa ATCC27853): 0.5 µg/mL (≈ 1.07 µM)
- MIC (K. pneumoniae A-651): 0.5 µg/mL (≈ 1.07 µM)
- MIC (wild-type E. coli A-1261; alkaline phosphatase 2 i.U./mL, read-out: MIC for E. coli A-1261 In the presence of an alkaline phosphatase (2 i.U./mL)): 0.25 µg/mL
- MIC (wild-type E. coli A-1261; esterase 10 i.U./mL, read-out: MIC for E. coli A-1261 In the presence of an esterase (10 i.U./mL)): 0.25 µg/mL
- MIC (wild-type E. coli A-1261; no alkaline phosphatase or esterase, read-out: MIC for E. coli A-1261 In the absence of alkaline phosphatase or esterase): 0.125 µg/mL (≈ 0.267 µM)
